Results from ChEMBL document CHEMBL2346657, “Synthesis of novel 2-amino-4-(5'-substituted 2'-phenyl-1H-indol-3'-yl)-6-aryl-4H-pyran-3-carbonitrile derivatives as antimicrobial and antioxidant agents” (2013).
Active and inactive are the calls of the source.

Test system: not listed separately
Experiment: Antioxidant activity assessed as metal chelating activity by measuring inhibition of ferrozine-Fe2+ complex formation at 25 to 100 ug/ml
Format: functional
Conditions: not given

Compound | Activity
N#CC1=C(N)OC(c2ccc(Cl)cc2)=CC1c1c(-c2ccccc2)[nH]c2ccc(Cl)cc12 (stereo not drawn) | Active
Cc1ccc(C2=CC(c3c(-c4ccccc4)[nH]c4ccc(C)cc34)c3c(nc[nH]c3=O)O2)cc1 (stereo not drawn) | Active

Test system: Radical scavenging activity
Experiment: Antioxidant activity assessed as DPPH radical scavenging activity at 100 ug/ml
Format: functional
Conditions: not given

Compound | Activity
N#CC1=C(N)OC(c2ccc(Cl)cc2)=CC1c1c(-c2ccccc2)[nH]c2ccc(Cl)cc12 (stereo not drawn) | Active

Test system: Aspergillus flavus
Experiment: Antimicrobial activity against Aspergillus flavus MTCC 1973 at 500 ug/ml after 72 hrs by cup plate method
Format: functional
Conditions: MTCC 1973, 72 h, read-out: IZ

Compound | zone of inhibition at 500 µg/mL [mm]
N#CC1=C(N)OC(c2ccc(Cl)cc2)=CC1c1c(-c2ccccc2)[nH]c2ccc(Cl)cc12 (stereo not drawn) | 12
Cc1ccc(C2=CC(c3c(-c4ccccc4)[nH]c4ccc(C)cc34)c3c(nc[nH]c3=O)O2)cc1 (stereo not drawn) | 10

Test system: Aspergillus flavus
Experiment: Antimicrobial activity against Aspergillus flavus MTCC 1973 at 750 ug/ml after 72 hrs by cup plate method
Format: functional
Conditions: MTCC 1973, 72 h, read-out: IZ

Compound | zone of inhibition at 750 µg/mL [mm]
N#CC1=C(N)OC(c2ccc(Cl)cc2)=CC1c1c(-c2ccccc2)[nH]c2ccc(Cl)cc12 (stereo not drawn) | 12
Cc1ccc(C2=CC(c3c(-c4ccccc4)[nH]c4ccc(C)cc34)c3c(nc[nH]c3=O)O2)cc1 (stereo not drawn) | 9

Test system: Aspergillus flavus
Experiment: Antimicrobial activity against Aspergillus flavus MTCC 1973 at 1000 ug/ml after 72 hrs by cup plate method
Format: functional
Conditions: MTCC 1973, 72 h, read-out: IZ

Compound | zone of inhibition at 1000 µg/mL [mm]
N#CC1=C(N)OC(c2ccc(Cl)cc2)=CC1c1c(-c2ccccc2)[nH]c2ccc(Cl)cc12 (stereo not drawn) | 13
Cc1ccc(C2=CC(c3c(-c4ccccc4)[nH]c4ccc(C)cc34)c3c(nc[nH]c3=O)O2)cc1 (stereo not drawn) | 9

Test system: Aspergillus terreus
Experiment: Antimicrobial activity against Aspergillus terreus MTCC 1782 at 500 ug/ml after 72 hrs by cup plate method
Format: functional
Conditions: MTCC 1782, 72 h, read-out: IZ

Compound | zone of inhibition at 500 µg/mL [mm]
Cc1ccc(C2=CC(c3c(-c4ccccc4)[nH]c4ccc(C)cc34)c3c(nc[nH]c3=O)O2)cc1 (stereo not drawn) | 9

Test system: Aspergillus terreus
Experiment: Antimicrobial activity against Aspergillus terreus MTCC 1782 at 750 ug/ml after 72 hrs by cup plate method
Format: functional
Conditions: MTCC 1782, 72 h, read-out: IZ

Compound | zone of inhibition at 750 µg/mL [mm]
Cc1ccc(C2=CC(c3c(-c4ccccc4)[nH]c4ccc(C)cc34)c3c(nc[nH]c3=O)O2)cc1 (stereo not drawn) | 9

Test system: Aspergillus terreus
Experiment: Antimicrobial activity against Aspergillus terreus MTCC 1782 at 1000 ug/ml after 72 hrs by cup plate method
Format: functional
Conditions: MTCC 1782, 72 h, read-out: IZ

Compound | zone of inhibition at 1000 µg/mL [mm]
Cc1ccc(C2=CC(c3c(-c4ccccc4)[nH]c4ccc(C)cc34)c3c(nc[nH]c3=O)O2)cc1 (stereo not drawn) | 9

Test system: Aspergillus oryzae
Experiment: Antimicrobial activity against Aspergillus oryzae MTCC 3567 at 500 ug/ml after 72 hrs by cup plate method
Format: functional
Conditions: MTCC 3567, 72 h, read-out: IZ

Compound | zone of inhibition at 500 µg/mL [mm]
N#CC1=C(N)OC(c2ccc(Cl)cc2)=CC1c1c(-c2ccccc2)[nH]c2ccc(Cl)cc12 (stereo not drawn) | 10
Cc1ccc(C2=CC(c3c(-c4ccccc4)[nH]c4ccc(C)cc34)c3c(nc[nH]c3=O)O2)cc1 (stereo not drawn) | 3

Test system: Aspergillus oryzae
Experiment: Antimicrobial activity against Aspergillus oryzae MTCC 3567 at 750 ug/ml after 72 hrs by cup plate method
Format: functional
Conditions: MTCC 3567, 72 h, read-out: IZ

Compound | zone of inhibition at 750 µg/mL [mm]
N#CC1=C(N)OC(c2ccc(Cl)cc2)=CC1c1c(-c2ccccc2)[nH]c2ccc(Cl)cc12 (stereo not drawn) | 10
Cc1ccc(C2=CC(c3c(-c4ccccc4)[nH]c4ccc(C)cc34)c3c(nc[nH]c3=O)O2)cc1 (stereo not drawn) | 3

Test system: Aspergillus oryzae
Experiment: Antimicrobial activity against Aspergillus oryzae MTCC 3567 at 1000 ug/ml after 72 hrs by cup plate method
Format: functional
Conditions: MTCC 3567, 72 h, read-out: IZ

Compound | zone of inhibition at 1000 µg/mL [mm]
N#CC1=C(N)OC(c2ccc(Cl)cc2)=CC1c1c(-c2ccccc2)[nH]c2ccc(Cl)cc12 (stereo not drawn) | 9
Cc1ccc(C2=CC(c3c(-c4ccccc4)[nH]c4ccc(C)cc34)c3c(nc[nH]c3=O)O2)cc1 (stereo not drawn) | 3

Test system: Aspergillus niger
Experiment: Antimicrobial activity against Aspergillus niger MTCC 281 at 500 ug/ml after 72 hrs by cup plate method
Format: functional
Conditions: MTCC 281, 72 h, read-out: IZ

Compound | zone of inhibition at 500 µg/mL [mm]
N#CC1=C(N)OC(c2ccc(Cl)cc2)=CC1c1c(-c2ccccc2)[nH]c2ccc(Cl)cc12 (stereo not drawn) | 10
Cc1ccc(C2=CC(c3c(-c4ccccc4)[nH]c4ccc(C)cc34)c3c(nc[nH]c3=O)O2)cc1 (stereo not drawn) | 3

Test system: Aspergillus niger
Experiment: Antimicrobial activity against Aspergillus niger MTCC 281 at 750 ug/ml after 72 hrs by cup plate method
Format: functional
Conditions: MTCC 281, 72 h, read-out: IZ

Compound | zone of inhibition at 750 µg/mL [mm]
N#CC1=C(N)OC(c2ccc(Cl)cc2)=CC1c1c(-c2ccccc2)[nH]c2ccc(Cl)cc12 (stereo not drawn) | 10
Cc1ccc(C2=CC(c3c(-c4ccccc4)[nH]c4ccc(C)cc34)c3c(nc[nH]c3=O)O2)cc1 (stereo not drawn) | 3

Test system: Aspergillus niger
Experiment: Antimicrobial activity against Aspergillus niger MTCC 281 at 1000 ug/ml after 72 hrs by cup plate method
Format: functional
Conditions: MTCC 281, 72 h, read-out: IZ

Compound | zone of inhibition at 1000 µg/mL [mm]
N#CC1=C(N)OC(c2ccc(Cl)cc2)=CC1c1c(-c2ccccc2)[nH]c2ccc(Cl)cc12 (stereo not drawn) | 10
Cc1ccc(C2=CC(c3c(-c4ccccc4)[nH]c4ccc(C)cc34)c3c(nc[nH]c3=O)O2)cc1 (stereo not drawn) | 3

Test system: Pseudomonas aeruginosa
Experiment: Antimicrobial activity against Pseudomonas aeruginosa MTCC 1688 at 500 ug/ml after 24 hrs by cup plate method
Format: functional
Conditions: MTCC 1688, 24 h, read-out: IZ

Compound | zone of inhibition at 500 µg/mL [mm]
N#CC1=C(N)OC(c2ccc(Cl)cc2)=CC1c1c(-c2ccccc2)[nH]c2ccc(Cl)cc12 (stereo not drawn) | 10
Cc1ccc(C2=CC(c3c(-c4ccccc4)[nH]c4ccc(C)cc34)c3c(nc[nH]c3=O)O2)cc1 (stereo not drawn) | 8

Test system: Pseudomonas aeruginosa
Experiment: Antimicrobial activity against Pseudomonas aeruginosa MTCC 1688 at 750 ug/ml after 24 hrs by cup plate method
Format: functional
Conditions: MTCC 1688, 24 h, read-out: IZ

Compound | zone of inhibition at 750 µg/mL [mm]
N#CC1=C(N)OC(c2ccc(Cl)cc2)=CC1c1c(-c2ccccc2)[nH]c2ccc(Cl)cc12 (stereo not drawn) | 10
Cc1ccc(C2=CC(c3c(-c4ccccc4)[nH]c4ccc(C)cc34)c3c(nc[nH]c3=O)O2)cc1 (stereo not drawn) | 8

Test system: Pseudomonas aeruginosa
Experiment: Antimicrobial activity against Pseudomonas aeruginosa MTCC 1688 at 1000 ug/ml after 24 hrs by cup plate method
Format: functional
Conditions: MTCC 1688, 24 h, read-out: IZ

Compound | zone of inhibition at 1000 µg/mL [mm]
N#CC1=C(N)OC(c2ccc(Cl)cc2)=CC1c1c(-c2ccccc2)[nH]c2ccc(Cl)cc12 (stereo not drawn) | 10
Cc1ccc(C2=CC(c3c(-c4ccccc4)[nH]c4ccc(C)cc34)c3c(nc[nH]c3=O)O2)cc1 (stereo not drawn) | 8

Test system: Klebsiella pneumoniae
Experiment: Antimicrobial activity against Klebsiella pneumoniae NCTC 13368 at 500 ug/ml after 24 hrs by cup plate method
Format: functional
Conditions: NCTC 13368, 24 h, read-out: IZ

Compound | zone of inhibition at 500 µg/mL [mm]
N#CC1=C(N)OC(c2ccc(Cl)cc2)=CC1c1c(-c2ccccc2)[nH]c2ccc(Cl)cc12 (stereo not drawn) | 10
Cc1ccc(C2=CC(c3c(-c4ccccc4)[nH]c4ccc(C)cc34)c3c(nc[nH]c3=O)O2)cc1 (stereo not drawn) | 8

Test system: Klebsiella pneumoniae
Experiment: Antimicrobial activity against Klebsiella pneumoniae NCTC 13368 at 750 ug/ml after 24 hrs by cup plate method
Format: functional
Conditions: NCTC 13368, 24 h, read-out: IZ

Compound | zone of inhibition at 750 µg/mL [mm]
N#CC1=C(N)OC(c2ccc(Cl)cc2)=CC1c1c(-c2ccccc2)[nH]c2ccc(Cl)cc12 (stereo not drawn) | 10
Cc1ccc(C2=CC(c3c(-c4ccccc4)[nH]c4ccc(C)cc34)c3c(nc[nH]c3=O)O2)cc1 (stereo not drawn) | 8

Test system: Klebsiella pneumoniae
Experiment: Antimicrobial activity against Klebsiella pneumoniae NCTC 13368 at 1000 ug/ml after 24 hrs by cup plate method
Format: functional
Conditions: NCTC 13368, 24 h, read-out: IZ

Compound | zone of inhibition at 1000 µg/mL [mm]
N#CC1=C(N)OC(c2ccc(Cl)cc2)=CC1c1c(-c2ccccc2)[nH]c2ccc(Cl)cc12 (stereo not drawn) | 10
Cc1ccc(C2=CC(c3c(-c4ccccc4)[nH]c4ccc(C)cc34)c3c(nc[nH]c3=O)O2)cc1 (stereo not drawn) | 8

Test system: Staphylococcus aureus
Experiment: Antimicrobial activity against Staphylococcus aureus ATCC 29513 at 500 ug/ml after 24 hrs by cup plate method
Format: functional
Conditions: ATCC 29513, 24 h, read-out: IZ

Compound | zone of inhibition at 500 µg/mL [mm]
N#CC1=C(N)OC(c2ccc(Cl)cc2)=CC1c1c(-c2ccccc2)[nH]c2ccc(Cl)cc12 (stereo not drawn) | 13
Cc1ccc(C2=CC(c3c(-c4ccccc4)[nH]c4ccc(C)cc34)c3c(nc[nH]c3=O)O2)cc1 (stereo not drawn) | 2

Test system: Staphylococcus aureus
Experiment: Antimicrobial activity against Staphylococcus aureus ATCC 29513 at 750 ug/ml after 24 hrs by cup plate method
Format: functional
Conditions: ATCC 29513, 24 h, read-out: IZ

Compound | zone of inhibition at 750 µg/mL [mm]
N#CC1=C(N)OC(c2ccc(Cl)cc2)=CC1c1c(-c2ccccc2)[nH]c2ccc(Cl)cc12 (stereo not drawn) | 13
Cc1ccc(C2=CC(c3c(-c4ccccc4)[nH]c4ccc(C)cc34)c3c(nc[nH]c3=O)O2)cc1 (stereo not drawn) | 2

Test system: Staphylococcus aureus
Experiment: Antimicrobial activity against Staphylococcus aureus ATCC 29513 at 1000 ug/ml after 24 hrs by cup plate method
Format: functional
Conditions: ATCC 29513, 24 h, read-out: IZ

Compound | zone of inhibition at 1000 µg/mL [mm]
N#CC1=C(N)OC(c2ccc(Cl)cc2)=CC1c1c(-c2ccccc2)[nH]c2ccc(Cl)cc12 (stereo not drawn) | 13
Cc1ccc(C2=CC(c3c(-c4ccccc4)[nH]c4ccc(C)cc34)c3c(nc[nH]c3=O)O2)cc1 (stereo not drawn) | 2

Test system: Escherichia coli
Experiment: Antimicrobial activity against Escherichia coli MTCC 723 at 500 ug/ml after 24 hrs by cup plate method
Format: functional
Conditions: MTCC 723, 24 h, read-out: IZ

Compound | zone of inhibition at 500 µg/mL [mm]
N#CC1=C(N)OC(c2ccc(Cl)cc2)=CC1c1c(-c2ccccc2)[nH]c2ccc(Cl)cc12 (stereo not drawn) | 13
Cc1ccc(C2=CC(c3c(-c4ccccc4)[nH]c4ccc(C)cc34)c3c(nc[nH]c3=O)O2)cc1 (stereo not drawn) | 2

Test system: Escherichia coli
Experiment: Antimicrobial activity against Escherichia coli MTCC 723 at 750 ug/ml after 24 hrs by cup plate method
Format: functional
Conditions: MTCC 723, 24 h, read-out: IZ

Compound | zone of inhibition at 750 µg/mL [mm]
N#CC1=C(N)OC(c2ccc(Cl)cc2)=CC1c1c(-c2ccccc2)[nH]c2ccc(Cl)cc12 (stereo not drawn) | 13
Cc1ccc(C2=CC(c3c(-c4ccccc4)[nH]c4ccc(C)cc34)c3c(nc[nH]c3=O)O2)cc1 (stereo not drawn) | 2

Test system: Escherichia coli
Experiment: Antimicrobial activity against Escherichia coli MTCC 723 at 1000 ug/ml after 24 hrs by cup plate method
Format: functional
Conditions: MTCC 723, 24 h, read-out: IZ

Compound | zone of inhibition at 1000 µg/mL [mm]
N#CC1=C(N)OC(c2ccc(Cl)cc2)=CC1c1c(-c2ccccc2)[nH]c2ccc(Cl)cc12 (stereo not drawn) | 14
Cc1ccc(C2=CC(c3c(-c4ccccc4)[nH]c4ccc(C)cc34)c3c(nc[nH]c3=O)O2)cc1 (stereo not drawn) | 2
